Columns and labels:
MUC5AC promoters = experiment: MUC5AC promoter luciferase reporter assay in H292 cells; format: cell-based, human; conditions: Table 7, MUC5AC promoter luciferase reporter, 10 μM, TNF-α 20 ng/mL
Description: The degree of activation of luciferase was confirmed using a One-glow Luciferase Assay System (Promega).
As a result, as shown in the following Table 7, the activity of the MUC5AC promoters increased in the group treated with TNF-α.

reactive oxygen species = experiment: Production of active oxygen species in BALF of the COPD model (DCF-DA); format: in vivo, C57BL/6N mice; conditions: for rate of inhibiting reactive oxygen compared with ROF drug control group (in words): 30 mg/kg
Protocol: Production of active oxygen species in the bronchoalveolar lavage fluid obtained in <Test Example 6-3> above was confirmed by the following method.
Specifically, the separated BALF (200 μL) was treated to the final concentration of 20 μM of DCF-DA (dihydrodichlorofluorescein diacetate, Sigma-Aldrich, USA), followed by culturing for 30 minutes and measurement using Fluorescence (Molecular Device, USA). The inhibition rate was calculated by Equation 3 above.

MUC5AC protein = experiment: Inhibition of MUC5AC protein production (immunoassay) by the compounds; format: cell-based, human; conditions: for MUC5AC secretion (Relative amount to TNF-α treated group, %) / Inhibition rate (%): TNF-α 20 ng/mL; for Inhibition rate (%): MUC5AC secretion; for production of MUC5AC (in words): vs TNF-α treated group = 100%
Protocol: For immunoassay of the resulting MUC5AC, the supernatant (50 uL) recovered was dispensed on to a 96-well plate and dried in a thermostat set at 50° C. It was washed with PBS supplemented with 1% BSA and reacted with an MUC5AC antibody (abcam, USA) at room temperature for 1 hour. A secondary antibody was dispensed thereto for reaction for 1 hour. It was washed again and then reacted with a 3,3′,5,5′-tetramethylbenzidine peroxide solution for 20 minutes. After the reaction was stopped with a sulfuric acid solution, the degree of color development was measured at 450 nm.
As a result, as shown in the following Table 6, the amount of MUCSAC secretion increased in the group treated with TNF-α.

[1] = test system: inflammatory cells in the bronchoalveolar lavage fluid; experiment: Inflammatory cells in bronchoalveolar lavage fluid of the COPD mouse model (cigarette smoke + LPS); format: in vivo, C57BL/6N mice; conditions: BALF, vs COPD-induced group
Protocol: Six-week-old male SPF (specific pathogen-free) C57BL/6N mice (22 to 24 g) were supplied by Koatech (Korea). These animals were fed with a sufficient amount of solid feed (no antibiotics, Samyang Feed Co.) and water until the day of the experiment. They were allowed to adapt for 1 week in a light-dark cycle environment at a temperature of 22±2° C. and a humidity of 55±15%, and then subjected to the experiment.
The animal model was exposed to cigarette smoke to induce chronic obstructive pulmonary disease. 3R4F Kentuchy Reference Cigarettes as standard cigarettes for use to generate cigarette smoke were supplied by University of California (USA). The standard cigarettes contain 9.4 mg of tar, 11 mg of total particle matter (TPM), and 12 mg of carbon monoxide per 1 cigarette. The standard cigarettes were used after harmonization for 48 hours to 72 hours at a temperature of 22±1° C. and a humidity of 60±2%. Further, Cigarette Smoke Generator manufactured by Korea BioLink (Korea) was used for exposure to cigarette smoke. Cigarette smoke was inhaled for 1 hour (8 pcs/hour) for 7 days from 1 hour after oral administration of a sample. 10 μg of LPS (lipopolysaccharide) in PBS 50 μL was injected intranasally to each mouse on the 4th day of the experiment after the mouse was anesthetized with zoletyl 1 hour before the exposure to cigarette smoke. The smoking condition was 8 puffs per 1 standard cigarette (volume: 45 mL, duration: 2 seconds, and interval: 1 time/min).
The active fraction of Magnoliae flos (15, 30 mg/kg) and roflumilast (10 mg/kg) as therapeutic substances were dissolved in 0.5% sodium carboxymethyl cellulose and were orally administered 1 hour before the exposure to cigarette smoke.
The experimental groups were divided into (i) normal control (NC) group; (ii) cigarette smoke+LPS exposure group (COPD); (iii) experimental group administered with roflumilast (ROF) (10 mg/kg, p.o) 1 hour before the exposure to cigarette smoke+LPS; and (iv) experimental group administered with the active fraction of Magnoliae flos (15, 30 mg/kg, p.o; Magnoliae flos 15 and Magnoliae flos 30) 1 hour before the exposure to cigarette smoke+LPS. […] Then, they were administered in the same manner as above.
The bronchial alveolar lavage fluid was separated from the animal model treated with the active fraction and the compounds of Magnoliae flos in <Test Example 6-2> above in the following manner, and the number of inflammatory cells was measured.
Specifically, a mouse sonde was inserted into the bronchial tube, a 1 mL syringe containing 0.7 mL of DPBS (Dulbecco's Phosphate-Buffered Saline) was connected thereto, and DPBS was injected into the lung. The injected DPBS was recovered, and this procedure was repeated twice. The bronchoalveolar lavage fluid separated by DPBS was centrifuged at 1,500 rpm for 15 minutes to make a cell pellet. The supernatant was stored frozen at −70° C. for cytokine analysis. Each cell obtained was suspended in DPBS, attached to a slide glass using a cytospin centrifuge, and Diff-Quik stained. The number of inflammatory cells in each sample was counted through microscopic examination, and the inhibition rate was calculated according to the following Equation 3.
Inhibition rate=(Value of COPD-induced group−value of target substance administered group)×100/(Value of COPD-induced group) [Equation 3]

TNF-α = TNF-α level in BALF of the COPD model (ELISA); format: in vivo, C57BL/6N mice; conditions: vs COPD-induced group; for TNF-α inhibition rate (%): BALF
Protocol: (§1) Cytokines were measured in the cell supernatant obtained in <Test Example 6-3> above by the following method. Specifically, the levels of IL-6 (R & D System, USA) and TNF-α (BD Bioscience, USA) in the separated BALF were measured by enzyme-linked immuno-sorbent assay (ELISA). Each cytokine analysis was carried out according to the manufacturer's test method.

H292 cells = experiment: Cytotoxicity (CCK-8 cell viability) of the compounds of Magnoliae flos in H292 cells; format: cell-based, human; conditions: 24 h, vs 0.2% DMSO control = 100%
Protocol: Then, 10 μl of the CCK-8 solution (Dojindo Laboratories, Japan) was mixed with 90 μl of the medium, and 100 μl thereof was added per well. After incubation for a minimum of 30 minutes to a maximum of 4 hours, the absorbance was measured at 570 nm. The cell viability was calculated according to the following Equation 2 with a negative control group treated with 0.2% DMSO as a reference of 100%.
Cell viability=(Compound treated OD 570 nm value)×100/(Negative control group OD 570 nm value) [Equation 2]

IL-6 = IL-6 level in BALF of the COPD model (ELISA); format: in vivo, C57BL/6N mice; conditions: vs COPD-induced group; for IL-6 inhibition rate (%): BALF
Protocol: as §1

[2] = 15 mg/kg p.o., vs COPD-induced group
[3] = 30 mg/kg p.o., vs COPD-induced group

SMILES | Inhibition rate (%) (MUC5AC promoters) | MUC5AC secretion (Relative amount to TNF-α treated group, %) (MUC5AC promoters) [%] | Active oxygen inhibition rate (%) (reactive oxygen species; [2]) | rate of inhibiting reactive oxygen compared with ROF drug control group (in words) (reactive oxygen species) | Active oxygen inhibition rate (%) (reactive oxygen species; [3]) | Inhibition rate (%) (MUC5AC protein; 2.5 μM) | Inhibition rate (%) (MUC5AC protein; 5 μM) | Inhibition rate (%) (MUC5AC protein; 10 μM) | production of MUC5AC (in words) (MUC5AC protein) | Inhibition rate of inflammatory cell infiltration (%) Macrophage ([1]; 15 mg/kg p.o.) [%] | Inhibition rate of inflammatory cell infiltration (%) Neutrophil ([1]; 15 mg/kg p.o.) [%] | Inhibition rate of inflammatory cell infiltration (%) Total inflammatory cells ([1]; 15 mg/kg p.o.) [%] | Inhibition rate of inflammatory cell infiltration (%) Macrophage ([1]; 30 mg/kg p.o.) [%] | Inhibition rate of inflammatory cell infiltration (%) Neutrophil ([1]; 30 mg/kg p.o.) [%] | Inhibition rate of inflammatory cell infiltration (%) Total inflammatory cells ([1]; 30 mg/kg p.o.) [%] | TNF-α inhibition rate (%) (TNF-α; 15 mg/kg p.o.) | TNF-α inhibition rate (%) (TNF-α; 30 mg/kg p.o.) | Viability of H292 cells (%, average ± deviation) (H292 cells; 2.5 μM) [%] | IL-6 inhibition rate (%) (IL-6; 15 mg/kg p.o.) | IL-6 inhibition rate (%) (IL-6; 30 mg/kg p.o.) | further results
COc1ccc([C@H]2OC[C@H]3[C@@H]2CO[C@@H]3c2cc(OC)c(OC)c(OC)c2)cc1OC [Compound S2, magnolin] | 55.2 | 44.8 ± 7.33 | 21.8 ± 4.4 | higher rates of inhibiting reactive oxygen than that of the drug control group treated with ROF | 14.0 ± 8.3 | 2.43 | 18.83 | 34.33 | inhibited in a manner depending on the concentrations | 21.6 ± 6.3 | 47.2 ± 3.6 | 44.7 ± 3.9 | 10.7 ± 9.8 | 31.0 ± 7.1 | 30.7 ± 5.3 | 29.2 ± 4.8 | 31.0 ± 7.2 | 121.81 ± 2.42 | 64.9 ± 4.8 | 36.6 ± 8.9 | MUC5AC secretion (Relative amount to TNF-α treated group, %) (MUC5AC protein; 2.5 μM): 97.57 ± 0.78%; MUC5AC secretion (Relative amount to TNF-α treated group, %) (MUC5AC protein; 5 μM): 81.17 ± 0.82%; MUC5AC secretion (Relative amount to TNF-α treated group, %) (MUC5AC protein; 10 μM): 65.67 ± 0.99%; production of MUC5AC (in words) (MUC5AC protein; listed as Formula 3): inhibited the production of MUC5AC in a manner depending on concentration; Viability of H292 cells (%, average ± deviation) (H292 cells; 5 μM): 119.94 ± 2.81%; Viability of H292 cells (%, average ± deviation) (H292 cells; 10 μM): 118.37 ± 2.55%; Viability of H292 cells (%, average ± deviation) (H292 cells; 20 μM): 112.99 ± 4.16%
COc1cc([C@H]2OC[C@H]3[C@@H]2CO[C@@H]3c2cc(OC)c(OC)c(OC)c2)cc(OC)c1OC [Compound S3, dimethylliroresinol] | 56.27 |  | 15.1 ± 4.7 |  | 32.5 ± 3.1 | 2.5 | 29.38 | 30.34 | inhibited in a manner depending on the concentrations | 19.4 ± 5.4 | 17.9 ± 6.6 | 23.3 ± 5.5 | 33.2 ± 6.2 | 42.1 ± 3.9 | 43.5 ± 3.4 | 26.7 ± 7.0 | 41.7 ± 4.4 | 100.55 ± 1.26 | 45.9 ± 6.2 | 43.9 ± 6.5 | production of active oxygen species (in words) (reactive oxygen species; 15 and 30 mg/kg, vs COPD-induced group): relatively higher inhibition rates in a manner depending on concentration; production of MUC5AC (in words) (MUC5AC protein; listed as Formula 4): inhibited the production of MUC5AC in a manner depending on concentration; increase in inflammatory cells (in words) [1]: effectively inhibited; TNF-α secretion in the bronchoalveolar lavage fluid (in words) (TNF-α): concentration-dependent inhibition
COc1ccc([C@H]2OC[C@H]3[C@@H]2CO[C@H]3c2cc(OC)c(OC)c(OC)c2)cc1OC [Compound S4, epimagnolin] | 63.2 | 36.8 ± 6.97 | 13.5 ± 4.3 | higher rates of inhibiting reactive oxygen than that of the drug control group treated with ROF | 15.9 ± 4.2 | 9.45 | 25.76 | 36.29 | inhibited in a manner depending on the concentrations | 0.0 ± 0.0 | 13.8 ± 4.9 | 14.0 ± 5.1 | 21.4 ± 6.5 | 25.7 ± 5.5 | 29.1 ± 4.4 | 13.8 ± 5.5 | 24.7 ± 6.5 | 99.81 ± 2.15 | 0.0 ± 0.0 | 40.3 ± 3.7 | MUC5AC secretion (Relative amount to TNF-α treated group, %) (MUC5AC protein; 2.5 μM): 90.55 ± 2.59%; MUC5AC secretion (Relative amount to TNF-α treated group, %) (MUC5AC protein; 5 μM): 74.24 ± 2.83%; MUC5AC secretion (Relative amount to TNF-α treated group, %) (MUC5AC protein; 10 μM): 63.71 ± 1.27%; production of MUC5AC (in words) (MUC5AC protein; listed as Formula 5): inhibited the production of MUC5AC in a manner depending on concentration; TNF-α secretion in the bronchoalveolar lavage fluid (in words) (TNF-α): concentration-dependent inhibition; Viability of H292 cells (%, average ± deviation) (H292 cells; 5 μM): 100.74 ± 2.84%; Viability of H292 cells (%, average ± deviation) (H292 cells; 10 μM): 99.45 ± 1.53%; Viability of H292 cells (%, average ± deviation) (H292 cells; 20 μM): 97.20 ± 1.99%; IL-6 in the bronchoalveolar lavage fluid (in words) (IL-6): concentration-dependent decrease
